Format in all cases: cell-based
Assay [1] has as its system KG-1a. As to the kind of experiment: Cell viability, additional cell lines (CellTiter-Glo), KG-1a. To be noted: Homo sapiens, 72 h. The method, then: (§1) Tumor cells are grown at 37° C. in a humidified atmosphere with 5% CO2 in RPMI 1640 medium, supplemented with 10% (v/v) fetal calf serum and 50 μg/ml gentamicin for up to 20 passages, and are passaged once or twice weekly.
(§2) Cells are harvested from exponential phase cultures, counted and plated in 96 well flat-bottom microtiter plates at a cell density depending on the cell line's growth rate (4,000-20,000 cells/well depending on the cell line's growth rate, up to 60,000 for hematological cancer cell lines) in RPMI 1640 medium supplemented with 10% (v/v) fetal calf serum and 50 μg/ml gentamicin (140 μl/well). Cultures are incubated at 37° C. and 5% CO2 in a humidified atmosphere. After 24 h, 10 μl of test compounds or control medium are added and left on the cells for another 72 h. Compounds are serially diluted in DMSO, transferred in cell culture medium, and added to the assay plates by using a Tecan Freedom EVO 200 robotic platform. The DMSO concentration is kept constant at 0.3% v/v across the assay plate. Viability of cells is quantified by the CellTiter-Glo® cell viability assay (Promega G8462). After incubation of cells, 100 μl of CellTiter-Glo® One Solution Assay reagent are added to each well. Plates are shaken for 2 minutes to induce cell lysis and incubated for 20 minutes prior to reading luminescence (LU) by using the EnVision® Xcite multilabel plate reader (Perkin Elmer). […]

Assay [2] relates to Hep3B cells. As to the kind of experiment: Cell survival clonogenic assay, Hep3B. To be noted: 0.1-10 μM, crystal violet staining after 9-10 days. As to the method: To determine the ability of a single cell to form a colony (defined as a cluster of at least 50 cells), Kelly and Hep3B cells were maintained in RPM11640 (Kelly) or EMEM (Hep3B) medium, supplemented with penicillin/streptomycin and 10% FBS. The cells were counted and seeded on the 6-well plates, at the density of 1×10^3 cells per well, the compounds to be tested were added at the desired concentration range, and the cells were cultured at 37° C./5% CO2. After colony formation (9-10 days), the cells were washed and treated with 6.0% glutaraldehyde and 0.5% crystal violet mix for 30 min., followed by rinsing with water and drying at room temperature (RT).

In assay [3] the test system is U-937. Nature of the assay: Cell viability, additional cell lines (CellTiter-Glo), U-937. To be noted: Homo sapiens, U-937, 72 h; read-out: Absolute IC50. As to the method:
as §1, §2
A general note: In ATP-based viability assays light output follows the ATP content of the culture.

The subject of assay [4] is NCI-H929. As to the kind of experiment: Cell viability, additional cell lines (CellTiter-Glo), NCI-H929. Conditions: Homo sapiens, NCI-H929, 72 h; read-out: Absolute IC50. The method, then:
as §1, §2

In assay [5] the target is T1, SALL4 (Homo sapiens, UniProt Q96SW2+Q9UJQ4).
T1 construct: SALL4 degradation in the Kelly cell line was investigated; endogenous in cells; host or cells: Kelly
Nature of the assay: SALL4 degradation in the Kelly cell line, time course. Conditions: Kelly cells, 0.1 μM, 3, 6, 12, 24, 48 and 72 h, FIG. 2. The method, then: Kelly cells were maintained in RPMI-1640 medium, supplemented with penicillin/streptomycin and 10% Fetal Bovine Serum (FBS). Cells were seeded on 6- or 12-well plates, and the compounds to be tested were added at the desired concentration range. Final DMSO concentration was 0.25%. After incubation (37° C., 5% CO2) for a specified period of time, cells were harvested, washed and cell lysates were prepared using RIPA lysis buffer. The amount of protein was determined via BCA assay, and the appropriate quantity was then loaded on the precast gel for the protein separation. After primary and secondary Ab staining, the membranes were washed and signals developed. The densitometry analysis was implemented to obtain the numeric values used later in the protein level evaluation process.

The test system of assay [6] is PL-21. Nature of the assay: Cell viability, additional cell lines (CellTiter-Glo), PL-21. Conditions: PL-21, 72 h; read-out: Absolute IC50. As to the method:
as §1, §2

Assay [7] deals with TMD8. Nature of the assay: Cell viability, additional cell lines (CellTiter-Glo), TMD8. To be noted: Homo sapiens, TMD8, 72 h; read-out: Absolute IC50. As to the method:
as §1, §2

For assay [8], the system named is Kasumi-1. As to the kind of experiment: Cell viability, additional cell lines (CellTiter-Glo), Kasumi-1. To be noted: Homo sapiens; Kasumi-1, 72 h; read-out: Absolute IC50. As to the method: as §1, §2
Assay [9] concerns KG-1 cells. As to the kind of experiment: Cell viability CTG assay, KG-1. Conditions: Homo sapiens; KG-1, 72 h, 0.001-50 μM; read-out: KG-1 Geomean absolute IC50 by molecule, 72 H. A digest of the protocol: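 Cells exposed to compound at 0.25% v/v DMSO for 72 h (37° C., 5% CO2). ATP quantified by CellTiter-Glo luminescence, normalized to DMSO control. Absolute IC50 (T/C=50%) by non-linear regression on duplicate means; geometric mean used for averages.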

Assay [10] concerns EOL-1. As to the kind of experiment: Cell viability, additional cell lines (CellTiter-Glo), EOL-1. To be noted: Homo sapiens, EOL1; EOL-1, 72 h; read-out: Absolute IC50. As to the method:
as §1, §2

Assay [11] has as its system MOLT-4. As to the kind of experiment: Cell viability, additional cell lines (CellTiter-Glo), MOLT-4. Conditions: Homo sapiens, MOLT-4, 72 h. As to the method:
as §1, §2

In assay [12] the test system is MOLM-13. Nature of the assay: Cell viability, additional cell lines (CellTiter-Glo), MOLM-13. Conditions: Homo sapiens, MOLM-13, 72 h. The method, then:
as §1, §2

The mark [13] stands for this setting: 9.5 μM, read-out: Test/Control viability at 9.5 μM.

pIC50: −log10 of the molar value.

T1 sequence (Q9UJQ4 whole entry): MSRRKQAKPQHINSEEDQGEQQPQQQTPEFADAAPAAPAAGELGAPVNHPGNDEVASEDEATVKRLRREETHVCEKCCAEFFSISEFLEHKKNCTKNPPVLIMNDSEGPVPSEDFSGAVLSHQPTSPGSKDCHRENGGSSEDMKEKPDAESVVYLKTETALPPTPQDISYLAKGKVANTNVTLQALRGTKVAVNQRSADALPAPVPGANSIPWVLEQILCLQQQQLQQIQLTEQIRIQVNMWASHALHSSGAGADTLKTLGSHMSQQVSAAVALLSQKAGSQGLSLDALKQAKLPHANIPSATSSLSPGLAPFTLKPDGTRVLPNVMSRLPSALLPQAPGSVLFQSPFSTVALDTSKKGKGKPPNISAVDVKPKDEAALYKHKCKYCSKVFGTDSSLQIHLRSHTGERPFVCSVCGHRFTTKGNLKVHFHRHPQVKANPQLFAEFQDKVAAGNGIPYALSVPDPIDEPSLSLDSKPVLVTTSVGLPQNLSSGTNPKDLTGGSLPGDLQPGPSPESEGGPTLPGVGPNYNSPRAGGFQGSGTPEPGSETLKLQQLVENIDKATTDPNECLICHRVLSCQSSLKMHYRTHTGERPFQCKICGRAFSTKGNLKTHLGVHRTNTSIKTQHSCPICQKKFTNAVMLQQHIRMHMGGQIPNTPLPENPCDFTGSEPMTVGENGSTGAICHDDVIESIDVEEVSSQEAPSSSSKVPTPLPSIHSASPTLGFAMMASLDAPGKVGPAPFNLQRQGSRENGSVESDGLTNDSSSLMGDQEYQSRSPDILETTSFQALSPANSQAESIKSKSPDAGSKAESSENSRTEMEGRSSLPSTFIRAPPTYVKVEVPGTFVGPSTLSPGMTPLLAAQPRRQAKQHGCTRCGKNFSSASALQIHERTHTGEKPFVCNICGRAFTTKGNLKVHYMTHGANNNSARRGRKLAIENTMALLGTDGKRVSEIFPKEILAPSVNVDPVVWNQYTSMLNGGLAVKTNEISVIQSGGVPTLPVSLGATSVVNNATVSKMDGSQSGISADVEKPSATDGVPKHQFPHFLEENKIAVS
T1 sequence (Q96SW2 whole entry): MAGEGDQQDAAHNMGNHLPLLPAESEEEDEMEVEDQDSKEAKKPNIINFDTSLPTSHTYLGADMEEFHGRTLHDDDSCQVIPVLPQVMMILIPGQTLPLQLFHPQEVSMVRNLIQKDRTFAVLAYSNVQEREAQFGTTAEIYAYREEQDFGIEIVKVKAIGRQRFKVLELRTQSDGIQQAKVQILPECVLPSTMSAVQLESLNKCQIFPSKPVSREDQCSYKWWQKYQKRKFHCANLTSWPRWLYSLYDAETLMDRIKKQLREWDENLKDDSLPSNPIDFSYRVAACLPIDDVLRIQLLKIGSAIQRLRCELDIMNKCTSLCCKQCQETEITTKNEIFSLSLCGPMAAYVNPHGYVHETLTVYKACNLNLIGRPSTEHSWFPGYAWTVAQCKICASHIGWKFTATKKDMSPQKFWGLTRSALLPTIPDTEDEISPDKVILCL
T1 sequence (Q16531 whole entry partner): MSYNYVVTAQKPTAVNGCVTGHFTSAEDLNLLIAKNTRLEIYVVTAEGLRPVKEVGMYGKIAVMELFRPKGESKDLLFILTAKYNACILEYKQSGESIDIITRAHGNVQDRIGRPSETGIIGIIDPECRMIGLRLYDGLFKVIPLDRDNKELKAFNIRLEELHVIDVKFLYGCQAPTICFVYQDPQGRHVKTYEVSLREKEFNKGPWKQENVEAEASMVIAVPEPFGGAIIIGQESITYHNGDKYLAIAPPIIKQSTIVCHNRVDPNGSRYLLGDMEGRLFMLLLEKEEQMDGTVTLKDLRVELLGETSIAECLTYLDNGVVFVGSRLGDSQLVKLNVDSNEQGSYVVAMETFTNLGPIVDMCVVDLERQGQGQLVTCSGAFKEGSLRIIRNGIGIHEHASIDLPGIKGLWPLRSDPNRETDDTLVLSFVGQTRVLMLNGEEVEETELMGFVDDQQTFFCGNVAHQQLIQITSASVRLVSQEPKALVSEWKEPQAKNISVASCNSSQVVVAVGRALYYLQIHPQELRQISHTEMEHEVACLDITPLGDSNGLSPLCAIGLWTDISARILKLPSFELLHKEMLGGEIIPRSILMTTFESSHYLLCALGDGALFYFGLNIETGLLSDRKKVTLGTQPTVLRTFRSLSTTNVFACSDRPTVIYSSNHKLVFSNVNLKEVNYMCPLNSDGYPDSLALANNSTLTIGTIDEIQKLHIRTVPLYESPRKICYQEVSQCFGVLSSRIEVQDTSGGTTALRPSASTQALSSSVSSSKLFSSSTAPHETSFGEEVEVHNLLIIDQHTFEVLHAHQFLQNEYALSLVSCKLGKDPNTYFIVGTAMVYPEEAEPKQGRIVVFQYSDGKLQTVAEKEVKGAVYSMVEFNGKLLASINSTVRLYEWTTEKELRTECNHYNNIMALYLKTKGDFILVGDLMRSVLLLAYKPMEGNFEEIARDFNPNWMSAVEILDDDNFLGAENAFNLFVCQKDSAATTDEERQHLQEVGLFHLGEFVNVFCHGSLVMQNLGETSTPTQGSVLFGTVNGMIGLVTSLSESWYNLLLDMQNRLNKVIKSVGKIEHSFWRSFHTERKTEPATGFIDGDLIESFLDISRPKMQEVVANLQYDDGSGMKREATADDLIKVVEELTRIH

The term pIC50 denotes −log10 of the IC50, conventionally taken in molar units. Consider `NCc1ccc2c(c1)CN(C1CCC(=O)NC1=O)C2=O` (stereo not drawn) [Compound 1, 3-(5-(aminomethyl)-1-oxoisoindolin-2-yl)piperidine-2,6-dione], for which the viability at 9.5 µM in assay [1] (setting [13]) was ≤ 30%; in assay [11] (setting [13]) it was ≤ 60%; in assay [12] (setting [13]), ≤ 60%. In addition, the pIC50 is ≥ 7.00 in assay [1] (read-out: Absolute IC50); < 4.52 in assay [3]; < 4.52 in assay [4]; < 4.52 in [6]; < 4.52 in [7]; < 4.52 in assay [8]. In addition, the pIC50 in assay [9] was ≥ 7.00; in assay [10] it was < 4.52; in [11] (read-out: Absolute IC50) it was ≤ 4.52; in assay [12] (read-out: Absolute IC50), ≤ 4.52. The “survival of the cells (colony formation)” value in assay [2] is on record as “in most cases inhibited”. The “SALL4 degradation time course” value in [5] was “more rapidly and effectively than lenalidomide”.

For the origin of these results see US20240294489A1 (Captor Therapeutics S.A., priority 2020, published 2024).
